Measurements taken from patent US10509041B2, “Glucose derivative, and cell imaging method and imaging agent using said derivative” (HIROSAKI UNIVERSITY, priority 2014, dated 2019).
Where “and” joins values, the source holds several entries; their conditions need not be identical. Equal values may be shown once.

How the values were obtained:
[1] = tested on: mouse insulinoma cells (MIN6); assay: Increase in fluorescence intensity (uptake) after administration of fluorescent glucose derivative to MIN6 cells, influence of cytochalasin B (CB) or phloretin (PHT), fluorescence microplate reader; assay type: cell-based; conditions: for effect of PHT on increase in fluorescence intensity (uptake) caused by administration: CDG and CLG on the same dish
[2] = tested on: neuronal cells of the substantia nigra pars reticulate of the midbrain; assay: Fluorescent imaging of acutely isolated normal neuronal cells; assay type: cell-based, mouse; conditions: 3 minutes, 8 minutes after start of washout
Protocol: The whole amount of the 0.5 mg CLG vial was recovered using 0.73 mL in total of 10% DMSO and dissolved (100 μM) by addition to 14.79 ml of a HEPES solution for image acquisition according to the method described in Non Patent Literature 2. […]
150 mM NaCl, 5 mM KCl, 1 mM MgCl2, 2 mM CaCl2, and 10 mM HEPES (the pH of the solution was adjusted to 7.4 with a 1 M tris(2-amino-2-hydroxymethyl-1,3-propanediol) solution). The concentration of glucose was set to 10 mM. 0.1 mM carbenoxolone (Sigma-Aldrich, #C4790) was added thereto for the purpose of inhibiting the entrance and exit of fluorescently labeled glucose by way of gap junction/hemichannel. This HEPES solution for image acquisition was used for preparing the CLG solution and the mixed solution with the additional fluorescent sugar derivative.
Neuronal cells […] to the method described in the previous reports of the inventors (WO2010/16587 (Patent Literature 2)) and (WO2012/133688 (Patent Literature 4)) and attached to each glass cover slip coated with poly-L-lysine. Then, the glass cover slip was transferred into the HEPES solution for image acquisition in a perfusion chamber loaded on a stage of a fluorescence microscope, followed by observation.
A silicon plate of 1 mm thickness bored to have a streamline-shaped hole (10 mm wide x 35 mm long) was placed via cover glass onto an aluminum heating control platform (Warner Instruments) having a round hole (diameter: 18 mm) for an objective lens at the bottom, and allowed to be in close contact with the cover glass.
The HEPES solution for image acquisition was warmed in advance in an aluminum syringe heater and supplied to the perfusion chamber through hydrostatic pressure. The perfusion rate was adjusted to 1.3±0.2 mL/min using a flow rate adjuster. Immediately before being introduced to the perfusion chamber, the solution was rewarmed via an inline heater so that the actually measured temperature of the perfusate in an observation region in the chamber was adjusted to 32.5±1° C. The CLG/2-TRLG mixed solution was able to be supplied in the same way as above and was switched with the HEPES solution for image acquisition using an electromagnetic valve capable of controlling the opening and closing of the channel. The solution was removed using a vacuum pump capable of controlling suction pressure.
The fluorescence microscope used was NIKON ECLIPS-Ti, and images were acquired with a CCD camera Retiga 2000R.
CLG and 2-TRLG were each detected using the following filter cassette.
Excitation 360/40 nm, Dichroic mirror 400 nm, Emission 460/50 nm.
Excitation 567/15 nm, Dichroic mirror 593 nm, Emission 593 nm Long pass.
The objective lens used in this method was ×20 dry lens (Nikon Plan S Fluor). The images were acquired at 1600×1200 pixels. […]

Structure (SMILES) | effect of PHT on increase in fluorescence intensity (uptake) caused by administration ([1]; MIN6 culture day 15, 5 minutes) | increase in fluorescence intensity caused by administration, compared with CDG (D/L stereoselectivity) ([1]; same dish, MIN6 culture day 15, 5 minutes) | uptake into normal neuronal cells ([2]; 100 μM CLG+20 μM 2-TRLG mixed solution, 21-day-old mouse) | fluorescence intensity in the presence of PHT relative to the absence of PHT ([1]; CDG 100 μM, 37° C. 5 minutes, PHT 150 μM, MIN6 culture day 13, average, two independent experiments) | uptake into normal neuronal cells ([2]; 100 μM CDG+20 μM 2-TRLG mixed solution, 14-day-old mouse)
O=c1ccc2ccc(NC3C(O)OC(CO)[C@H](O)[C@H]3O)cc2o1 (stereo partly drawn) [CLG, 2-deoxy-2-(2-oxo-2H-chromen-7-yl)amino-L-glucose] | significantly inhibited | significantly smaller | not observed |  | 
O=c1ccc2ccc(NC3C(O)OC(CO)[C@@H](O)[C@@H]3O)cc2o1 (stereo partly drawn) [CDG, 2-deoxy-2-(2-oxo-2H-chromen-7-yl)amino-D-glucose] | significantly inhibited |  |  | 28.5% and 28.8% | taken into the normal neuronal cells
